This note sets out measurements from patent publication US5840859A, “(Aminostyryl)pyridinium compounds for radiolabelling cell membranes” (Research Corporation Technologies, Inc., priority 1996, dated 1998).

Series [1] concerns mixed leukocytes. As to the kind of experiment: Mixed leukocyte labeling yield. It counts as cell-based, canine. Particulars: for Mixed leukocyte labeling yield: 125I labeled, average, 10-30 μCi, 250-325 Ci/mmol. How it is done:
Labeling of mixed leukocytes (harvested from 20 mL canine blood) with 4a-d was performed using five different procedures: 1) labeling in Diluent C (a commercial non-ionic cell labeling media developed by Zynaxis Co. that is not approved for human use) after two saline washes of the cell pellet; 2) labeling in saline after two saline washes of the cell pellet; 3) labeling in saline with no saline washes of the cell pellet; 4 and 5) labeling in ether 10% or 100% platelet poor plasma (PPP).
Unwashed mixed leukocytes in 1.5 mL 10% PPP in saline were also tested. […]
This was evaporated to dryness under vacuum in a speed vac and reconstituted into 30 ul ethanol. Forty milliliters of canine blood was drawn into a 60 mL syringe containing 6.5 mL acetate-citrate-dextrose solution. To this was added 5.5 mL 2% methyl cellulose in saline. The contents of the syringe were gently mixed by several inversions of the syringe and the syringe placed vertically, needle end up, for 45 minutes to allow the red blood cells to settle. The plasma was drawn off and placed into a 50 mL Falcon tube. The tube was centrifuged at 1100 rpm for 15 minutes to pellet the leukocytes. The plasma was removed and the cells resuspended in 2 mL saline. In a 1 mL plastic microcentrifuge was placed 0.5 mL saline. […] The cells were then underlayered with 7.5 mL of platelet poor plasma and centrifuged at 1600 rpm for seven minutes to pellet the cells. The supernatant was removed, the cells resuspended in 10 mL saline, and transferred to a new tube. The supernatant, cells, and labeling tube were counted for radioactivity. The cells were centrifuged again at 1600 rpm for 7 minutes, the supernatant removed, and the cells resuspended.
A sample of canine blood (20 mL) was drawn into a 60 mL syringe containing 3 mL acetate-citrate-dextrose (ACD) solution. To this was added 3 mL 2% methyl cellulose in saline. The contents of the syringe were gently mixed by several inversions, and the syringe was then placed vertically, needle end up, for 45 min to allow the red blood cells to settle. The plasma was drawn off and transferred to a 50 mL Falcon tube. The tube was centrifuged at 1100 rpm for 15 min to pellet the leukocytes. The plasma was removed and the cells resuspended in 10 mL saline. The tube was centrifuged at 1600 rpm for 7 min, the supernatant removed, and the cells resuspended in 10 mL saline and recentrifuged at 1600 rpm for 7 min. The supernatant was then removed and the cells resuspended in 2 mL Diluent C. Into a 1 mL plastic microcentrifuge tube was placed 0.5 mL Diluent C. […] The indium complex in Diluent C was immediately added to the leukocytes and the cells were placed vertically on a Nutator rocking apparatus and rocked gently for 30 min at room temperature. The cells were then underlayered with 5 mL of platelet poor plasma and centrifuged at 1600 rpm for 7 min to pellet the cells. The supernatant was removed, the cells resuspended in 10 mL saline, and transferred to a new tube. The supernatant, cells, and labeling tube were counted for radioactivity. The cells were centrifuged again at 1600 rpm for 7 min, the supernatant removed, and the cells resuspended.

The nature of series [2]: Viability of labeled lymphocytes (Trypan Blue exclusion test). The series is classed as cell-based, dog and rat. Particulars: before and after radiolabeling. An excerpt:
(§1) Peripheral blood lymphocytes (PBLs) from dogs and rats as well as rat splenic lymphocytes were labeled in high yields with either 4a or 4b (Table 2). Viability of labeled lymphocytes was >90% both before and after radiolabeling (Trypan Blue exclusion test).

The subject of series [3] is rat splenic lymphocytes. As to the kind of experiment: Lymphocyte labeling yield, rat splenic lymphocytes. It counts as cell-based. The protocol: as §1
A 400 g Sprague-Dawley rat was sacrificed to remove the spleen (1.133 g). The spleen was perfused with phosphate buffered saline to remove the lymphocytes. The lymphocytes in 10 mL PBS were split into two equal portions and each portion was layered onto 5 mL of Lympholyte-Rat (Cedar Lane Laboratories Limited, Ontario, Canada) in a separate 15 mL centrifuge tube. The tubes were centrifuged at 2700 rpm for 20 minutes at room temperature. The lymphoctyes appeared as a layer at the interface of the saline and Lympholyte-Rat layers. The saline layer was removed and discarded. The lymphocyte containing layer from each tube was removed and transferred to a single 50 mL Falcon tube. To this tube was added 10 mL saline and the tube centrifuged for 7 minutes at 1600 rpm. The supernatant was removed, the cells resuspended in 10 mL saline, and centrifuged at 1600 rpm for 7 minutes. The supernatant was removed and the cells suspended in 1 mL saline. […] […] To these cells was added 20 ul of an ethanolic solution of 3-[4-[2-(N,N-dihexylamino)phenyl]ethyenyl]pyridino-E-1-[^125 I]-iodo-propene (15.6 uCi) dissolved in 500 ul of saline. The cells were place vertically on a Nutator rocking apparatus and rocked gently for 20 minutes at room temperature. The cells were then underlayered with 7.5 mL of saline and centrifuged at 1600 rpm for seven minutes to pellet the cells. The supernatant was removed, the cells resuspended in 10 mL saline, and transferred to a new tube. The supernatant, cells, and labeling tube were counted for radioactivity. The cells were centrifuged again at 1600 rpm for 7 minutes, the supernatant removed, and the cells resuspended. After the second centrifugation, 11.9uCi (77%) of ^131 I was bound to the lymphocytes. After labeling, 12% of the cells were dead by the trypan blue exclusion test.

Series [4] deals with rat splenic lymphocytes. Put plainly: Rat splenic lymphocyte survival after labeling (Trypan blue exclusion test). The series is classed as cell-based. Particulars: Example 11, trypan blue. The protocol:
(§2) A 400 g Sprague-Dawley rat was sacrificed to remove the spleen (1.133 g). The spleen was perfused with phosphate buffered saline to remove the lymphocytes. The lymphocytes in 10 mL PBS were split into two equal portions and each portion was layered onto 5 mL of Lympholyte-Rat (Cedar Lane Laboratories Limited, Ontario, Canada) in a separate 15 mL centrifuge tube. The tubes were centrifuged at 2700 rpm for 20 minutes at room temperature. The lymphoctyes appeared as a layer at the interface of the saline and Lympholyte-Rat layers. The saline layer was removed and discarded. The lymphocyte containing layer from each tube was removed and transferred to a single 50 mL Falcon tube. To this tube was added 10 mL saline and the tube centrifuged for 7 minutes at 1600 rpm. The supernatant was removed, the cells resuspended in 10 mL saline, and centrifuged at 1600 rpm for 7 minutes. The supernatant was removed and the cells suspended in 1 mL saline. Using a hemocytometer, a total of 5 million lymphocytes were counted. […] To these cells was added 20 ul of an ethanolic solution of 3-[4-[2-(N,N-dihexylamino)phenyl]ethyenyl]pyridino-E-1-[^125 I]-iodo-propene (15.6 uCi) dissolved in 500 ul of saline. The cells were place vertically on a Nutator rocking apparatus and rocked gently for 20 minutes at room temperature. […] The supernatant, cells, and labeling tube were counted for radioactivity. […]

Test in series [5]: as above
It counts as cell-based. Particulars: rat, splenic lymphocytes; Example 11, trypan blue; 12% dead before labeling; read-out: dead cells after labeling. How it is done: as §2

Series [6] deals with sodium urate induced abscess in the stifle joint. Put plainly: Localization of labeled leukocytes in dogs having a sodium urate induced abscess in the stifle joint (aspirate, gamma camera images). From the text:
Mixed leukocytes labeled with 4b and ^111 In-oxine labeled mixed leukocytes were compared in dogs having a sodium urate-induced inflammation in the left stifle joint. […]

The subject of series [7] is mononuclear leukocytes. As to the kind of experiment: Mononuclear leukocyte labeling yield. The series is classed as cell-based. Particulars: harvested from 20 mL canine blood via isolymph method. How it is done:
Using ^125 I-4b and ^131 I-4b, mononuclear leukocytes harvested from 20 mL canine blood via the isolymph method (sodium diatrizoste and Ficol 400, d=1.077) were labeled in 77% and 85% yields, respectively. Thus, the present compounds can label both lymphocytes and mixed leukocytes in high yields, and that the latter can be used to image sites of focal inflammation.

For the molecule `CCCCN(CCCC)c1ccc(/C=C/c2cc[n+](C/C=C/[125I])cc2)cc1` [Compound 4a], the “Mixed leukocyte labeling yield” value was 41% in series [1] (10% PPP in saline); 75% in series [1] (Diluent C); 72% in series [1] (saline, 2 washes of pellet); 71% in series [1] (saline, no washes of pellet). For the same molecule, in series [1] (Diluent C, or saline with or without washes of the cell pellet), the “Leukocyte labeling (in words)” value was “labeled leukocytes in high yield”. Also, the viability in series [2] was more than 90%. For the same molecule, in series [3] (PBLs from dogs and rats and rat splenic lymphocytes), the “Lymphocyte labeling (in words)” value is on record as “high yields”. In addition, the Lymphocyte labeling yield in series [3] (Rat spleen, Lympholyte-Rat, 63-300 × 10^6 cells, PBS, 125I, average) is reported as 71%.

For the molecule `CCCCCCN(CCCCCC)c1ccc(/C=C/c2cc[n+](C/C=C/[125I])cc2)cc1` [^125 I-4b, 3-[4-[2-(N,N-dihexylamino)phenyl]ethyenyl]pyridino-E-1-[^125 I]-iodo-propene], the “effect of labeling on cell survival” value in series [4] is “the labeling did not affect cell survival”. In addition, in series [5], the cytotoxicity turned out to be 12%. Besides, the Labeling Yield amounted to 80% in series [1] (1.5 ml saline, pellet not washed); 84% in series [1] (1.5 ml saline, pellet washed with 1×10 mL saline); 82% in series [1] (1.5 ml saline, pellet washed with 2×10 mL saline); 84% in series [1] (Table 3 Experiment 1, 4b 250 Ci/mmol, Diluent C after 2 × 10 mL saline washes); 88% in series [1] (Table 3 Experiment 2, 4b footnotes a,c (250 / 1000 Ci/mmol)); 83% in series [1] (unwashed, 1.5 mL 10% PPP in saline). Further, the “radioactivity bound to the lymphocytes (labeling yield)” value in series [3] (Example 11, 5 million lymphocytes, saline, 15.6 uCi, 20 min, room temperature) was 77%. Further, in series [3] (Example 11, of 15.6 uCi added), the “radioactivity bound to the lymphocytes” value is on record as 11.9 uCi. Further, the “131I/111In or 125I/111In in aspirate” value in series [6] (Experiment 1) came to 1.65; in series [6] (Experiment 2), 6.0. The entries for the “% aspirate radioactivity cell bound” value in series [6] (Experiment 1) and in series [6] (Experiment 2) were 98% and 96%, respectively. Further, the “% inj. dose in abscess aspirate” value is reported as 0.594% in series [6] (Experiment 1, injected 84 μCi 125I-4b, 500 μCi 111In-oxine, Diluent C) and 0.527% in series [6] (Experiment 2, injected 66 μCi 125I-4b, 312 μCi 111In-oxine). The “localization of labeled leukocytes in induced inflammatory site/abscess, compared with 111In-oxine (111In-labeled) leukocytes” value in series [6] (sodium urate induced abscess, dog) is listed as “higher degree of localization”. Further, in series [7], the “Mononuclear leukocyte labeling yield” value was found to be 77%.

One may read the viability as a read-out of living cells in per cent, often relative to untreated cells.
